Assay results: paper PMC11800397, “Identification of the Polymerizing Glycosyltransferase Required for the Addition of D-Glucuronic Acid to the Capsular Polysaccharide of Campylobacter jejuni” (Biochemistry, 2025)

Key:
[1] = target: T1, Cj1438C (C-terminal domain of Cj1438) (Campylobacter jejuni, UniProt Q0P8H6); experiment: product analysis by ESI-MS, 1H and […] NMR; format: biochemical; details: 5.0 mM ATP, 10 mM MgCl2, 50 mM NH4HCO3, pH 8.0, 25 °C, 4 h
T1 construct: C-terminal hexahistidine tag (pET31b(+)); E. coli; 40,084 Da

[2] = system: CO[C@@H]1O[C@H](CO)[C@@H](O)[C@H]1O; experiment: purified protein; details: 2.0 mM UDP-D-GlcA fixed, 0-25 mM substrate, 10 μM enzyme, 50 mM NH4HCO3, pH 8.0, 25 °C

T1 sequence (Q0P8H6 entry or part of it): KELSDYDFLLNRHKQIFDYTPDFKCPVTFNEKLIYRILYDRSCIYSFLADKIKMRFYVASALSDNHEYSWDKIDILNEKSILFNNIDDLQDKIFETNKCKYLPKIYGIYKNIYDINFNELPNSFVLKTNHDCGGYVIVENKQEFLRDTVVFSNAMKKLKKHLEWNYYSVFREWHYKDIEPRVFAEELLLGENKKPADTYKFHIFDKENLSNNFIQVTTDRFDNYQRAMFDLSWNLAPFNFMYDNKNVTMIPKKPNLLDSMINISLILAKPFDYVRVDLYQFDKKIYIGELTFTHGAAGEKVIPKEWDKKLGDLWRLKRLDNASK

CO[C@@H]1O[C@H](CO)[C@@H](O)[C@H]1O[C@H]1O[C@H](C(=O)O)[C@@H](O)[C@H](O)[C@H]1O [7a, compound 7a]
product analysis by ESI-MS, 1H and 31P NMR ([1]; 5.0 mM (S)-serinol phosphate): Incubation of Cj1438C with ATP, MgCl2, compound 7a, and (S)-serinol-P resulted in the formation

N[C@@H](CO)COP(=O)(O)O [(S)-serinol phosphate]
product analysis by ESI-MS, 1H and 31P NMR ([1]; 5.0 mM compound 7a): Incubation of Cj1438C with ATP, MgCl2, compound 7a, and (S)-serinol-P resulted in the formation

Cj1432N (N-terminal domain of Cj1432) (Campylobacter jejuni subsp. jejuni NCTC 11168 = ATCC 700819)
Km [2]: 970 ± 90 µM
kcat [2]: 0.0085 ± 0.00017 s⁻¹
